How the values were obtained:
coronaviruses [1] = assay: Killing of coronaviruses on treated surfaces versus a control surface; details: in 2 hours
Experimental: 88% more coronaviruses were killed on the treated surfaces than on a control surface, also in 2 hours.

coronaviruses [2] = assay: EN 14476 (Liquid Disinfectant Test); details: in 2 hours

## Paramolybdotungstate [Paramolybdotungstate Mo:W 1:1]
Coronaviruses [1]
  more coronaviruses killed on treated surfaces than on a control surface: 88%
Coronaviruses [2]
  log reduction of coronaviruses: 4 log

Source: US20230345946A1, “ANTIVIRAL SURFACES COMPRISING POLYOXOMETALATES AND ZINC MOLYBDATE” (FRIDA GROUP APS, priority 2020, published 2023)
